Laboratory results: ChEMBL document CHEMBL1150705, “Plant anticancer agents XLIV. Cytotoxic constituents from Stizophyllum riparium” (1987)
Values after ≈ are worked out from the molar mass of the structure shown.

Test system: P388
Experiment: Cytotoxicity against mouse P388 cells
Format: functional
Details: read-out: ED50 (the source's name)

## CC(=O)C1=CC[C@H]2C3=CCC4=C[C@@H](O)[C@H](O)C[C@]4(C)[C@H]3C[C@@H](O)[C@]12C [STIZOPHYLLIN]
  EC50: 0.07 µg/mL (≈ 0.203 µM)
